Test results taken from patent publication US20180289709A1, “METHODS OF TREATING INFLAMMATION” (priority 2010, published 2018).

Tested on: primary mouse lung fibroblasts (MLFs)
Conditions: 1 μM

CC[C@@H]1C(=O)N(C)c2cnc(Nc3ccc(C(=O)NC4CCN(C)CC4)cc3OC)nc2N1C1CCCC1 [BI 2536]
viral replication (luciferase activity in reporter cells): elevated replication
